Measured values published in patent US20240101602A1, “ANTIMICROBIAL PEPTIDES AND METHOD OF PREVENTING OR TREATING INFECTION BY USING THE SAME” (priority 2020, published 2024).
In brackets after ≈: the same amount, converted by molar mass. Like-named read-outs stand apart in the source and are kept apart here. Non-standard residues stand in square brackets, D forms with d. Residues, ends and D or L forms follow the SMILES beside them.

How the values were obtained:
[1] = tested on: Staphylococcus epidermidis ATCC 14990
[2] = tested on: red blood cells; type: cell-based, rat
Experimental: Further, the hemolytic activity of the antimicrobial peptides was tested. EDTA-treated rat whole blood was centrifuged at 840×g for 3 minutes at 4° C. to separate blood cells and plasma. The plasma was removed, and the blood cells were washed three times with PBS having the same volume as the original blood volume by gently turning the centrifuge tube upside down. After washing, ten microliters of blood cells were diluted in PBS 2000 times to count the cells. Finally, red blood cells were diluted to 5×10^8 cells/mL in PBS. Peptides were dissolved in water and filtered through a 0.2-μm filter to make a stock solution. The peptide concentration was quantitated by UV280. The peptide solution was diluted in PBS to different concentrations (5 times of tested concentration). Twenty microliters of peptide in PBS were mixed with 80 μL of red blood cell solution in a 96-well plate (V-bottom). […] The concentration of heme contained in each well was measured by UV405 using Infinite M1000 pro (Tecan). The hemolytic activity was calculated using the following formula: Hemolytic activity=[(F−F0)/(Ft−F0)]×100% • F is UV405 of the peptide-treated sample; • F0 is UV405 of sample without peptide (negative control); • Ft is UV405 of the Triton-treated sample (positive control).

[3] = tested on: Salmonella typhimurium NCHU 15721; conditions: murium NCHU 15721
[4] = tested on: Candida albicans SC5314
[5] = tested on: Cryptococcus gattii WM276
[6] = tested on: Acinetobacter baumannii ATCC 17978
[7] = tested on: Candida albicans 12-99 (fluconazole-resistant)
[8] = tested on: Staphylococcus aureus BCRC 10777
[9] = tested on: Klebsiella pneumonia NTUH-K2044
[10] = tested on: Cryptococcus neoformans T1 (fluconazole-resistant)
[11] = tested on: Pseudomonas aeruginosa ATCC 9027; conditions: ATCC 9027
[12] = tested on: Candida albicans 89 (echinocandin-resistant)
[13] = tested on: Cryptococcus neoformans H99
[14] = tested on: Cryptococcus deuterogattii R265
[15] = tested on: Cryptococcus neoformans 89-610 (fluconazole-resistant)
[16] = tested on: Xanthomonas campestris pv. campestris strain Xcc17; experiment: IC50 of bacterial growth (OD600) in rich liquid medium; type: cell-based; conditions: Xcc Xcc17, 24 h, purified peptides
Experimental: (§1) To measure the antimicrobial activity, single colony grown on an optimal rich agar medium for each bacterium was picked and grew in 3 mL of the same rich liquid medium for 4 to 6 h. The bacterial culture was then diluted in the same medium to give a final concentration of OD600=0.08 and then further diluted […] in the same medium. In each well of a 96-well polystyrene plate, 90 μL of the diluted culture was mixed with 10 μL of the peptide to give a peptide concentration of 0, 2, 10, and 20 μg/mL (final cell concentration is 5×10^5 CFU/mL). OD600 was measured after incubation at an optimal temperature for 24 h. IC50 was determined as the lowest peptide concentration inhibiting 50% of bacterial growth.

[17] = tested on: Xanthomonas euvesicatoria strain Xvt28; experiment: as above; type: cell-based; conditions: Xev Xvt28, 24 h, purified peptides
Experimental: as §1

[18] = tested on: Escherichia coli strain DH5a; conditions: DH5a, 24 h
[19] = tested on: Pseudomonas syringae pv. syringae strain B728a; conditions: Pss B728a; Table 7
[20] = CD spectra of pepD in liposomes; type: physicochemical; conditions: CD in water, DOPC, POPE/POPG (1:1, w/w) liposomes
Experimental: 1,2-dioleoyl-sn-glycero-3-phosphocholine (DOPC) is commonly used to mimic mammalian cell membrane. 1-Palmitoyl-2-oleoyl-sn-glycero-3-phosphoglycerol (POPG) has a negatively charged head group. The mixture of 1-palmitoyl-2-oleoyl-sn-glycero-3-phosphoethanolamine (POPE) and POPG is commonly used to mimic the negatively charged membrane surface of bacteria.
For the CD spectra of pepD in lipids, two kinds of liposomes DOPC and POPE/POPG (1:1, w/w) were prepared. DOPC (10 mg/mL) and POPE/POPG (14 mg/mL) were dissolved in chloroform/methanol (9/1, v/v) in a glass tube individually. The solvents were evaporated under the purge of nitrogen gas to form a thin lipid film on the tube surface. The tube was placed in vacuo overnight to completely remove the organic solvent. To rehydrate the lipid film, 400 μL deionized water was added and mixed in an Intelli-Mixer (rocker mode, 60 rpm) for one hour. Then, the water/lipid mixture was frozen in liquid nitrogen and thawed at 45° C. for 5 min. After five freeze-thaw cycles, liposomes were prepared by extruding the mixture through a polycarbonate filter (with 200-nm pore size) using an Avanti Mini-Extruder (Avanti Polar Lipids, USA). Purified pepD was dissolved in water (64 μg/mL) and mixed with an equal volume of the liposome suspension for CD measurement.

[21] = tested on: Xanthomonas campestris pv. campestris strain Xcc17; experiment: MIC and MBC by serial dilution in 96-well plate; type: cell-based; conditions: Xcc Xcc17; Table 7
Experimental: (§2) The effect of peptide length on the antimicrobial activity was investigated by deciding the minimal inhibitory concentration (MIC) and minimal bactericidal concentration (MBC) for each peptide against the pathogen with the media and growth conditions of phytopathogenic bacteria and E. coli as described in Table 1. Single bacterial colony grown on an optimal rich agar medium was picked, and each grew in 3 mL of the same rich liquid medium for 4 to 6 h.
(§3) For experiments carried out in the rich medium, the bacterial broth culture was then diluted in the same medium to give a final concentration of OD600=0.08, and then further diluted 100 folds in the same medium.
(§4) For experiments carried out in the minimal medium, the bacterial cells were collected from the bacterial liquid culture by centrifugation, re-suspended in an optimal minimal medium to give a final concentration of OD600=0.08, and then further diluted 100 folds in the same minimal medium.
(§5) Fifty microliters of serially diluted peptides (2-fold the final concentration) were added in a 96-well polystyrene plate with 50 μL of the bacterial culture. The final concentrations of peptides were 0, 2, 4, 8, 16 and 32 μg/mL. The plates were incubated at an optimal temperature without shaking.
(§6) MBC was determined as the lowest peptide concentration at which no colonies formed.

[22] = tested on: Xanthomonas euvesicatoria strain Xvt28; experiment: MIC and MBC by serial dilution in 96-well plate; type: cell-based; conditions: Xev Xvt28; Table 7
Experimental: as §2, §3, §4, §5, §6

[23] = tested on: Agrobacterium tumefaciens strain Atu C58C1; conditions: Atu C58C1; Table 7
[24] = tested on: Eco DH5α; experiment: MIC and MBC by serial dilution in 96-well plate; type: cell-based, Escherichia coli; conditions: Table 7
Experimental: as §2, §3, §4, §5, §6

[25] = tested on: Pseudomonas syringae pv. tomato strain DC3000
[26] = tested on: Xanthomonas oryzae pv. oryzae strain Xoo28; conditions: Xoo Xoo28; rich medium, 24 h, purified peptides
[27] = tested on: Xanthomonas oryzae pv. oryzae strain Xoo28; conditions: Xoo Xoo28; Table 7
[28] = tested on: Pectobacterium carotovorum subsp. carotovorum; type: cell-based
Summary of the method: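 Bacteria were grown 4–6 h, set to OD600=0.08 in rich or minimal medium, then diluted 100-fold. This inoculum was mixed 1:1 with 2-fold serial peptide dilutions and incubated static at optimal temperature. MIC was read from growth and MBC taken as the lowest concentration giving no colonies.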

**Q.** Which results are given for `CC(=O)N[C@@H](Cc1c[nH]c2ccccc12)C(=O)N[C@H](CCCCN)C(=O)N[C@H](CCCCN)C(=O)N[C@H](CC(C)C)C(=O)N[C@H](CCCCN)C(=O)N[C@H](CCCCN)C(=O)N[C@H](CC(C)C)C(=O)N[C@H](CC(C)C)C(=O)N[C@H](CCCCN)C(=O)N[C@H](CCCCN)C(=O)N[C@H](CC(C)C)C(=O)N[C@H](CCCCN)C(=O)N[C@H](CCCCN)C(=O)N[C@H](CC(C)C)C(N)=O` [pepdD2, Ac-Wkklkkllkklkkl-NH2] (Ac-W[dK][dK][dL][dK][dK][dL][dL][dK][dK][dL][dK][dK][dL]-NH2)?
**A.** MBC [1]: 32 µg/mL (≈ 17.4 µM); MIC [1]: 16 µg/mL (≈ 8.71 µM); hemolytic activity [2]: very little or non-hemolytic activity; MBC [3]: 16 µg/mL (≈ 8.71 µM); MIC [3]: 16 µg/mL (≈ 8.71 µM); MFC ([4]; SC5314): 32 µg/mL (≈ 17.4 µM); MIC ([4]; SC5314): 32 µg/mL (≈ 17.4 µM); MFC [5]: 2 µg/mL (≈ 1.09 µM); MIC [5]: 2 µg/mL (≈ 1.09 µM); MBC [6]: 8 µg/mL (≈ 4.36 µM); MFC [7]: 32 µg/mL (≈ 17.4 µM); MIC [7]: 16 µg/mL (≈ 8.71 µM); MBC [8]: 32 µg/mL (≈ 17.4 µM); MIC [8]: 32 µg/mL (≈ 17.4 µM); MBC [9]: 32 µg/mL (≈ 17.4 µM); MIC [9]: 32 µg/mL (≈ 17.4 µM); MIC ([10]; Cryptococcus neoformans T1 (fluconazole-resistant)): 2 µg/mL (≈ 1.09 µM); MFC ([10]; T1 (fluconazole-resistant)): 2 µg/mL (≈ 1.09 µM); MBC [11]: 4 µg/mL (≈ 2.18 µM); MIC [11]: 4 µg/mL (≈ 2.18 µM); MFC [12]: 32 µg/mL (≈ 17.4 µM); MIC [12]: 32 µg/mL (≈ 17.4 µM); MIC ([13]; Cryptococcus neoformans H99): 4 µg/mL (≈ 2.18 µM); MFC ([13]; H99): 4 µg/mL (≈ 2.18 µM); MFC [14]: 2 µg/mL (≈ 1.09 µM); MIC ([14]; Cryptococcus deuterogattii R265): 2 µg/mL (≈ 1.09 µM); MFC ([15]; 89-610 (fluconazole-resistant)): 2 µg/mL (≈ 1.09 µM); MIC ([15]; Cryptococcus neoformans 89-610 (fluconazole-resistant)): 2 µg/mL (≈ 1.09 µM)

**Q.** For Ac-WKKLKKLLKKLKKLLKKL-NH2 [pepD], which MIC ([4]; SC5314, 48 h) is on record?
**A.** Its MIC is 16.0 µg/mL.

**Q.** And the IC50 [16]?
**A.** The IC50 was 4.0 µg/mL.

**Q.** And the IC50 [17]?
**A.** The IC50 was 4.0 µg/mL.

**Q.** And the IC50 [18]?
**A.** The IC50 was 10.0 µg/mL.

**Q.** And the MBC [19]?
**A.** The MBC was “— (“—” indicates no antimicrobial activity being detected at the highest peptide concentration (32 μg/mL) tested in this study.)”.

**Q.** And the MIC [19]?
**A.** The MIC was 32.0 µg/mL.

**Q.** And the lipid selectivity [20]?
**A.** Its lipid selectivity is “only interacts with negatively charged lipid”.

**Q.** What about the MBC [21] of the same molecule?
**A.** The MBC was 6.7 µg/mL.

**Q.** And the MIC [21]?
**A.** Its MIC is 2.7 µg/mL.

**Q.** What about the MBC [22] of the same molecule?
**A.** The MBC was 18.7 µg/mL.

**Q.** What about the MIC [22] of the same molecule?
**A.** Its MIC is 5.3 µg/mL.

**Q.** What about the MBC [23] of the same molecule?
**A.** Its MBC is “— (“—” indicates no antimicrobial activity being detected at the highest peptide concentration (32 μg/mL) tested in this study.)”.

**Q.** What about the MBC [24] of the same molecule?
**A.** The MBC was 10.0 µg/mL.

**Q.** What about the MIC [24] of the same molecule?
**A.** Its MIC is 10.0 µg/mL.

**Q.** What about the MBC [25] of the same molecule?
**A.** Its MBC is 24.0 µg/mL.

**Q.** What about the MIC [25] of the same molecule?
**A.** The MIC was 16.0 µg/mL.

**Q.** And the IC50 [26]?
**A.** The IC50 was 8.0 µg/mL.

**Q.** What about the MBC [27] of the same molecule?
**A.** The MBC was 4.0 µg/mL.

**Q.** What about the MIC [27] of the same molecule?
**A.** The MIC was 4.0 µg/mL.

**Q.** And the MIC [28]?
**A.** Its MIC is 32.0 µg/mL.

**Q.** What about the MBC ([28]; Pcc, Table 7) of the same molecule?
**A.** The MBC was “— (“—” indicates no antimicrobial activity being detected at the highest peptide concentration (32 μg/mL) tested in this study.)”.
